Six molecules from patent publication US20050260629A1, “Differential drug sensitivity” (Ludwig Institute for Cancer Research, priority 2004, published 2005) can be followed below.

Entries after “also recorded” stand apart in the source; their conditions may differ.

Format in all cases: cell-based, Human
Data set [1] concerns ASPP2 promoter. Description: ASPP2 promoter luciferase stable U2OS cell line. How it is done:
(§1) Cells were co-transfected with 1 μg of the plasmid of interest and 4 μg of pCDNA3, which contains the resistance gene against neomycin for 6 hours. They were washed once with PBS and cultured in medium supplemented with neomycin. Twenty four hours later they were split and plated at different dilutions (from 1:50 to 1:200) in medium containing neomycin. The medium was changed every three days for two weeks until colonies formed. Colonies were picked and sub-cultured into a 24-well plate. After proliferation of each colony, cells were characterized either by luciferase assays or by western blotting according to the cell line.
(§2) Twenty four hours after transfection, the cells were lysed in Reporter Lysis buffer supplied by Promega and assayed using the Luciferase assay kit (Promega), measuring luciferase activity with the Autolumat Plus (Berthold technologies). The fold activation of a particular reporter was determined by the activity of the transfected plasmid divided by the activity of vector alone. The fold increase of activity in response to drug treatment was obtained by the activity in the presence of drug divided by the activity of the untreated sample.
(§3) ASPP might respond to drugs in many ways in cells. To start investigating this, stable cell lines expressing luciferase under the control of the ASPP1 or ASPP2 promoters were created in U2OS cells. For each cell line, two clones were tested with the six drugs used previously. […] At the same time, these cell lines were used to titrate drugs.

Data set [2] deals with MDM2 promoter. Kind of data set: MDM2Luciferase stable U2OS cell line. How it is done: as §1, §2
(§4) Pig3Luciferase, Pig3-delFLuciferase (similar to the Pig3 promoter but without the p53 binding site), p21Luciferase, MDM2Luciferase reporters were used to generate four cell lines in U2OS cells.

Data set [3] relates to proapoptotic promoter Pig3. Kind of data set: Pig3Luciferase reporter transactivation, transient transfection in U2OS cells. Particulars: treated 24 hours. How it is done:
(§5) Adherent cells were grown to a confluence of 70-80% in fresh medium. Cells were plated 24 hours prior to the transfection procedure. The medium on the dishes was replaced with 3 ml of fresh medium 15-30 minutes before the transfection. 2×HBS buffer (280 mM NaCl, 10 mM KCL, 1.4 mM Na2HPO4.2H2O, 12 mM glucose, 39 mM HEPES, adjusted to a pH 6.9-7.3) was diluted in sterile water to a concentration of 1× in a final volume of 300 μl. The required amount of DNA was added using sterile Gilson tips and mixed thoroughly. To form the precipitate, 12.5 μl of 2.5 M CaCl2 was added to the transfection mix and left at room temperature for 12-15 minutes. Six hours later dishes were washed with medium without serum once before adding 3 ml of fresh medium supplemented with 10% serum until further analysis of cells.
as §2
Some of the drugs commonly used in cancer therapy are known to stimulate p53 transactivation activity. To test their effect on a proapoptotic promoter specifically transactivated by p53, U2OS and MCF7 cells (both wild type p53) were transiently transfected with the proapoptotic reporter Pig3Luciferase and then treated for 24 hours with eight different compounds (FIGS. 1A and 1B).
Si—RNA cloned into pSuper plasmid (Brummelkamp et al., Science. 296(5567):550-3, 2002) was transiently transfected with the Pig3 reporter into U2OS cells treated with doxorubicin or cisplatin (FIG. 3A).
On the technique in general: Reporter assays use an easily measured gene product as a stand-in for the process of interest.

The subject of data set [4] is proapoptotic promoter Pig3. Kind of data set: Pig3Luciferase reporter transactivation, transient transfection in MCF7 cells. Particulars: treated 24 hours. The procedure: as §5
Twenty four hours after transfection, the cells were lysed in Reporter Lysis buffer supplied by Promega and assayed using the Luciferase assay kit (Promega), measuring luciferase activity with the Autolumat Plus (Berthold technologies). The fold activation of a particular reporter was determined by the activity of the transfected plasmid divided by the activity of vector alone. The fold increase of activity in response to drug treatment was obtained by the activity in the presence of drug divided by the activity of the untreated sample. […]

For data set [5], the system named is p21 promoter. Kind of data set: p21Luciferase stable U2OS cell line. How it is done: as §1, §2, §4
For data set [6], the system named is Pig3 promoter. Kind of data set: Pig3Luciferase stable U2OS cell line. The procedure:
as §1, §2, §4

The test system of data set [7] is ASPP1 promoter. Description: ASPP1 promoter luciferase stable U2OS cell line. The procedure:
as §1, §2, §3

Data set [8] relates to deleted Pig3 promoter. Description: Pig3-delFLuciferase stable U2OS cell line (no p53 binding site). How it is done: as §1, §2, §4
The mark [9] stands for this setting: drug titration, regardless of the concentration.

As for `COc1cccc2c1C(=O)c1c(O)c3c(c(O)c1C2=O)C[C@@](O)(C(C)=O)C[C@@H]3O[C@H]1C[C@H](N)[C@H](O)[C@H](C)O1` [daunorubicin], in data set [1] (clone 4, titration, at 150 ng/ml), the “ASPP2 promoter activity increase” value came out at 4 fold. In data set [1] (stable U2OS, clone 4), the ASPP2 promoter activity result is “stimulated”. In addition, in data set [2], the MDM2 promoter activity entry is reported as “not p21 or MDM2”. In data set [3], the “Pig3 promoter activity went up by” value is on record as 34.7 fold and the “ability of p53 to transactivate the Pig3 promoter” value (“ability of p53” for short) was “strongly increased”. The “ability of p53” value in data set [4] is on record as “strongly increased”. Also, the p21 promoter activity entry in data set [5] is given as “not p21 or MDM2”. Also, the Pig3-Luciferase activity result in data set [6] is “specifically stimulated”. For the same molecule, the ASPP1Luciferase reporter activity result in data set [7] (setting [9]) is reported as “little effect”.

In the case of `COc1cccc2c1C(=O)c1c(O)c3c(c(O)c1C2=O)C[C@@](O)(C(=O)CO)C[C@@H]3O[C@H]1C[C@H](N)[C@H](O)[C@H](C)O1` [doxorubicin], the ASPP2 promoter activity result was “activates” in data set [1] (FIGS. 4A and 4B (both clones)); “had an effect” in data set [1] (stable U2OS, clone 3); “stimulated” in data set [1] (stable U2OS, clone 4). Also, in data set [1] (clone 4, titration, at 2 μM (highest effect)), the “ASPP2 promoter activity, increase over the control” value is 10 fold. Further, the “activity of the deleted Pig3 promoter” value in data set [8] is listed as “did not affect”. The MDM2 promoter activity result in data set [2] was “not p21 or MDM2”. Moreover, the “ability of p53” value in data set [3] and in data set [4] was “strongly increased” each time. Besides, the p21 promoter activity entry in data set [5] is “not p21 or MDM2”. For the same molecule, the Pig3-Luciferase activity result in data set [6] is “respond; also recorded: specifically stimulated”. Also, the ASPP1Luciferase reporter activity in data set [7] (drug titration, at 2 μM) stood at 2 fold. Also, the “toxicity in ASPP1Luciferase cells” value in data set [7] (drug titration, concentration reached 3 μM) is listed as “toxic”.

`COc1cc([C@@H]2c3cc4c(cc3[C@@H](O[C@@H]3O[C@@H]5CO[C@@H](C)O[C@H]5[C@H](O)[C@H]3O)[C@H]3COC(=O)[C@H]23)OCO4)cc(OC)c1O` [etoposide]: the MDM2 promoter activity result in data set [2] is recorded as “did not affect”. Besides, the p21 promoter activity result in data set [5] was “did not affect”. In addition, the Pig3-Luciferase activity result in data set [6] is reported as “did not affect”.

`N.N.[Cl][Pt][Cl]` [cisplatin]: the ASPP2 promoter activity result in data set [1] (clone 4, drug titration) is reported as “no effect”. The MDM2 promoter activity entry in data set [2] is on record as “did not affect”. Besides, in data set [3], the “Pig3 promoter activity went up by” value is listed as 2.9 fold and the “ability of p53” value is “did not have the same efficiency as doxorubicin”. In addition, the p21 promoter activity result in data set [5] was “did not affect”. Further, in data set [6], the Pig3-Luciferase activity entry is “did not affect”. The ASPP1Luciferase reporter activity entry in data set [7] (setting [9]) is reported as “little effect”.

In data set [1] (clone 4, titration, at 40 μg/ml), `O=c1[nH]cc(F)c(=O)[nH]1` [5-Fluorouracil] came in with an ASPP2 promoter activation of 3 fold. Also, the “effect on the MDM2 promoter” value in data set [2] is recorded as 7 fold. Besides, the “ability of p53” value in data set [3] is recorded as “able to induce such induction”. The “Pig3 promoter activity induced by” value in data set [6] was “three”. Also, in data set [7] (drug titration), the “concentration inducing the maximum ASPP1Luciferase reporter activity” value stood at 40 µg/mL. For the same molecule, the ASPP1 promoter activity result in data set [7] (stable U2OS, two clones, after 24 hours, listed as 5-fluorouracil) was “activates”.

In the case of `CO[C@@]12[C@H](COC(N)=O)C3=C(C(=O)C(C)=C(N)C3=O)N1C[C@@H]1N[C@@H]12` [mitomycin C], in data set [2], the MDM2 promoter activity entry is on record as “did not affect”. In addition, the p21 promoter activity entry in data set [5] is given as “did not affect”. The Pig3-Luciferase activity result in data set [6] is “did not affect”.
